# Entries after “also recorded” stand apart in the source; their conditions may differ.
# Key:
# human PFKFB3 = biological target: T1, human PFKFB3 (Homo sapiens, UniProt Q16875); test: 2-Kase assay and kinetic analysis (enzyme-coupled); assay type: biochemical; details: for Inhibition (type): Lineweaver-Burk analysis; for IC50: PFKFB3 2-Kase activity; for Ki: steady state inhibition against Fru-6-P; for PFKFB3 inhibition at twice the IC50: twice the IC50 for PFKFB3 (N4A = 6 µM, YN1 = 1.3 µM)
# T1 construct: The structure contains a total of 443 amino acid residues of the full-length protein of 520 residues; 6xHis; made in house; host or cells: Escherichia coli BL21(DE3) pLysS
# Description: To determine steady-state initial reaction rates, the 2-Kase reactions were performed first and the Fru-2,6-BP produced was measured by a conventional enzyme-coupled kinetics assay as described previously, [36]. Initial rates of decrease in absorbance (Abs) at 340 nm were corrected with the rate of the control reaction in which no Fru-2,6-BP was present. Negative controls were carried out in the absence of enzyme and positive controls indicate the reaction in the presence of enzyme without inhibitor compounds. […] IC50 values were determined in quadruplicate. For the kinetic studies, concentrations of one of substrate and inhibitor were varied and decrease in absorbance at 340 nm was measured. The inhibition patterns were analyzed using the program written by Cleland, in which Ki is the dissociation constants for the inhibitor from enzyme-inhibitor complex. For Selectivity studies, the 2-Kase assays were performed first and the F-2,6-P2 produced was measured by an enzyme coupled kinetics assay as described above. The His6-tagged PFKFB isoforms, PFKFB1, PFKFB2, and PFKFB4 were expressed in Escherichia coli C41(DE3) and purified using Ni-NTA affinity columns.
# PFKFB1 = biological target: T2, PFKFB1 (Homo sapiens, UniProt P16118); test: 2-Kase assay, isoform selectivity; assay type: biochemical; details: N4A = 6 µM, YN1 = 1.3 µM
# T2 construct: His6; made in house; host or cells: Escherichia coli C41(DE3)
# Description: (§1) To determine steady-state initial reaction rates, the 2-Kase reactions were performed first and the Fru-2,6-BP produced was measured by a conventional enzyme-coupled kinetics assay as described previously, [36]. Initial rates of decrease in absorbance (Abs) at 340 nm were corrected with the rate of the control reaction in which no Fru-2,6-BP was present. Negative controls were carried out in the absence of enzyme and positive controls indicate the reaction in the presence of enzyme without inhibitor compounds. The percentage of Inhibitory activity was calculated according to the formula: % inhibition = 100×[1−(Absnegativecontrol−Abscompound)/(Absnegativecontrol−Abspositivecontrol)]. IC50 values were determined in quadruplicate. For the kinetic studies, concentrations of one of substrate and inhibitor were varied and decrease in absorbance at 340 nm was measured. The inhibition patterns were analyzed using the program written by Cleland, in which Ki is the dissociation constants for the inhibitor from enzyme-inhibitor complex. For Selectivity studies, the 2-Kase assays were performed first and the F-2,6-P2 produced was measured by an enzyme coupled kinetics assay as described above. The His6-tagged PFKFB isoforms, PFKFB1, PFKFB2, and PFKFB4 were expressed in Escherichia coli C41(DE3) and purified using Ni-NTA affinity columns.
# PFKFB2 = biological target: T3, PFKFB2 (Homo sapiens, UniProt O60825); test: 2-Kase assay, isoform selectivity; assay type: biochemical; details: N4A = 6 µM, YN1 = 1.3 µM
# T3 construct: His6; made in house; host or cells: Escherichia coli C41(DE3)
# Description: as §1
# PFKFB4 = biological target: T4, PFKFB4 (Homo sapiens, UniProt Q16877); test: 2-Kase assay, isoform selectivity; assay type: biochemical; details: N4A = 6 µM, YN1 = 1.3 µM
# T4 construct: His6; made in house; host or cells: Escherichia coli C41(DE3)
# Description: as §1
# HeLa cells [1] = test: Cellular Fru-2,6-BP level determination; assay type: cell-based, human; details: 25 µM
# Description: (§2) HeLa cells were plated at a density of 2.5×10^5 in a 6-well plate in DMEM containing 10% FCS. The media were replaced with fresh DMEM containing either vehicle (dimethyl sulfoxide) or 25 µM of inhibitor the following day. After 0, 4, 8, 12, 24, or 48 hours of incubation with each inhibitor, media samples were collected for measuring the lactate secretion levels using a lactate oxidase-based assay kit (Sigma-Aldrich) and the lactate concentration was normalized to the total cellular protein concentration. The Fru-2,6-BP level was determined with collected cells at times of 0, 4,8,12,24, or 48 hours after the treatment, using the method described previously.
# HeLa cells [2] = test: Lactate secretion (lactate oxidase-based assay kit); assay type: cell-based, human; details: 25 µM
# Description: as §2
# HeLa and T47D cells = test: Cell growth inhibition (XTT assay or trypan blue counting); assay type: cell-based, human; details: for Reduction in cell proliferation: 25 µM, human adenocarcinoma cells, compared to unexposed cells; for GI50: Homo sapiens, 36 hours incubation, inhibitor concentration for 50% of vehicle-treated cell growth
# Description: (§3) Cell growth inhibition was determined by an XTT-based in-vitro toxicology assay (Sigma-Aldrich) or trypan blue staining. Cells were plated at a density of 3.5×10^4 per well in a 24-well plate in DMEM containing 10% FCS. These cells were allowed to attach for 24 hours, and the media were replaced with fresh media containing either vehicle (dimethyl sulfoxide) or appropriate concentrations of test compounds. After 36 hours of incubation with either vehicle or compounds, cells were trypsinized and cell viability was determined by the trypan blue exclusion assay using a hemacytometer. For the XTT assay, cells were seeded into 96-well cell culture plates at a density of 0.6×10^4 per well. After the appropriate treatment described above, cells were incubated with 0.1 mg/ml of 2,3-bis(2-methoxy-4-nitro-5-sulfophenyl)-5-[(phenylamino)carbonyl]-2H-tetrazolium hydroxide (XTT) for 4 hours and then cell number was determined by the absorbance at 470 nm, which is proportional to the number of cells that remained attached to the plate. GI50s were calculated as the inhibitor concentration needed for 50% of vehicle-treated cell growth. The appearance of apoptotic or necrotic cells was determined by flow cytometric analysis of cells double stained with Annexin V-FITC and propidium iodide (PI). Apoptotic and necrotic cells were distinguished on the basis of double-labeling for Annexin V-FITC (Sigma-Aldrich) and PI, a membrane-impermeable DNA stain. Floating and freshly trypsinized cells were pooled, washed twice in binding buffer, and processed following manufacturer's instructions. The fluorescence of samples were analyzed by flow cytometry (FACSCalibur®, Becton Dickinson Immunocytometry, San Jose, CA) using the CellQuest (BD Bioscience, Immunocytometry Systems, San Jose, CA, USA) software.
# HeLa cells [3] = test: Soft agar colony formation; assay type: cell-based, human; details: 3 weeks; for Soft agar colony formation: HeLa cells, 25, 50 and 100 µM; for inhibition at 25 µM: Homo sapiens, 504 h, HeLa cells
# Description: For HeLa cell colony formation was determined by soft agar assay. Cells ([…]) were mixed in DMEM medium containing 0.35% agarose and varying concentrations of N4A or YN1. Then the cell mixture was added on a layer of 0.6% concentration of bottom agar in 24 well plates and allowed to grow for three weeks at 37°Cunder 5% CO2. Fresh medium containing the inhibitors or vehicle (DMSO) was changed every four days. Colonies of 50 cells or more were counted after three weeks. The experiments were repeated at least five times.
# HeLa cells [4] = test: Flow cytometric analysis of cell death (Annexin V-FITC / PI); assay type: cell-based, human
# Description: as §3
# T1 sequence (Q16875 whole entry): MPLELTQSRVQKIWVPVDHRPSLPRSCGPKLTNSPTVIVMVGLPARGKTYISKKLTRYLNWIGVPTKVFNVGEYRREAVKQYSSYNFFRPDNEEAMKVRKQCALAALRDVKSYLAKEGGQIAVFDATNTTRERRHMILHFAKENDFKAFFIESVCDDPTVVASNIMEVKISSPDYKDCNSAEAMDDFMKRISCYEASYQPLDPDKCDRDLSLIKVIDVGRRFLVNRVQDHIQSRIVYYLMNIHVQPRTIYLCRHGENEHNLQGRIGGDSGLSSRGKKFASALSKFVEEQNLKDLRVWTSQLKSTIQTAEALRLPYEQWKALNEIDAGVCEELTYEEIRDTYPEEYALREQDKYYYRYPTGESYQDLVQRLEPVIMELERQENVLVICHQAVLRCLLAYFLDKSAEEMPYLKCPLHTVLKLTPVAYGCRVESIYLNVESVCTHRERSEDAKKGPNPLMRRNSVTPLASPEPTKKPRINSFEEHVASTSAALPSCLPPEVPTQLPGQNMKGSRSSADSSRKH
# T2 sequence (P16118 whole entry, canonical isoform): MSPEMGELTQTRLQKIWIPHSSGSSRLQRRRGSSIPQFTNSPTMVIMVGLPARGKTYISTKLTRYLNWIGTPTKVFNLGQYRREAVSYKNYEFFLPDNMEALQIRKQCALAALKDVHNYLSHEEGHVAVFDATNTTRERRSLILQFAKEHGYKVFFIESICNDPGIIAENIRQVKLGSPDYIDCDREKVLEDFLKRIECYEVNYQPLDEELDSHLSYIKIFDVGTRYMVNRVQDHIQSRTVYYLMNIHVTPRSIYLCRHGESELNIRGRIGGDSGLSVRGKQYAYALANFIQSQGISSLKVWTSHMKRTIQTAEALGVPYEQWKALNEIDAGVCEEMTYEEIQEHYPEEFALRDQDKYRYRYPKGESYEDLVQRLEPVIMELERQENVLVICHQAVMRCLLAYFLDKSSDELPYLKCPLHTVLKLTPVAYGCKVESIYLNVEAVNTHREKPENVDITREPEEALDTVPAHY
# T3 sequence (O60825 whole entry, canonical isoform): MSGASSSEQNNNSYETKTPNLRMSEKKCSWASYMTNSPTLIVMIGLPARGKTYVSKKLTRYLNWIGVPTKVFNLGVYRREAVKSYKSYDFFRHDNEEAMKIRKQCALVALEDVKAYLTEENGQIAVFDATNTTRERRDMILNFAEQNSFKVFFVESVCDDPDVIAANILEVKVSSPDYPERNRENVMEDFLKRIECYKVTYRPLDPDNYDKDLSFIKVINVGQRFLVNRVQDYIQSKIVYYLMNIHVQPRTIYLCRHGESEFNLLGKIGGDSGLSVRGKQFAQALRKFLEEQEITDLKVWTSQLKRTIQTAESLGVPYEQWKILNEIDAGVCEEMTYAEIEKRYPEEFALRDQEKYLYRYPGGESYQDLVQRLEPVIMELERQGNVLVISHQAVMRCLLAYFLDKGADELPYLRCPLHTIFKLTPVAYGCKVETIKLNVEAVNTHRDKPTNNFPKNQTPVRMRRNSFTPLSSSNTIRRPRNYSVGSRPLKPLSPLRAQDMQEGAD
# T4 sequence (Q16877 whole entry, canonical isoform): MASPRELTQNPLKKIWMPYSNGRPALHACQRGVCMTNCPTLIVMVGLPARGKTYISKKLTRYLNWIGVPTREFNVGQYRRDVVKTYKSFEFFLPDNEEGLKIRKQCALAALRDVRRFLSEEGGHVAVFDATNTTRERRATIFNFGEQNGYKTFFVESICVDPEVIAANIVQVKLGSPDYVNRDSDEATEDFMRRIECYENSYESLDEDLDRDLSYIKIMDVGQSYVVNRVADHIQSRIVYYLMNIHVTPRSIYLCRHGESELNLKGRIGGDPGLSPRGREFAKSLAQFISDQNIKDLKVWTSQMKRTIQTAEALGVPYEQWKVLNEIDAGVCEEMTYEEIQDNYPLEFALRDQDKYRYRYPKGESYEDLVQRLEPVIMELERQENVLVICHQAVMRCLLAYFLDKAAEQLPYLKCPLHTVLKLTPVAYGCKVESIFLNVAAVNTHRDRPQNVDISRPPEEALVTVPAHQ
Compound,"Effect of Tween-20 on PFKFB3 inhibition (human PFKFB3; 10 µM compound, in the presence of 0.1% Tween-20)","inhibition at 10 µM (human PFKFB3; 10 µM compound, substrate-saturating conditions)",Inhibition (type) (human PFKFB3),IC50 (human PFKFB3),Ki (human PFKFB3),PFKFB3 inhibition at twice the IC50 (human PFKFB3),PFKFB1 inhibition at twice the IC50 for PFKFB3 (PFKFB1),PFKFB2 inhibition at twice the IC50 for PFKFB3 (PFKFB2),PFKFB4 inhibition at twice the IC50 for PFKFB3 (PFKFB4),"Reduction of Fru-2,6-BP level (HeLa cells [1]; 48-hour exposure)","Reduction of Fru-2,6-BP level (HeLa cells [1]; 8 hour exposure)",Decrease in lactate secretions (HeLa cells [2]),Reduction in cell proliferation (HeLa and T47D cells),GI50 (HeLa and T47D cells),Soft agar colony formation (HeLa cells [3]),inhibition at 25 µM (HeLa cells [3]),Type of cell death induced (HeLa cells [4]; 25 µM),Type of cell death induced (HeLa cells [4]; 50 µM),Type of cell death induced (HeLa cells [4]; Annexin V / PI),Increase in PFKFB3 inhibition compared to N4A (human PFKFB3; relative to lead N4A)
"O=c1cc(-c2ccc(O)cc2)oc2c(O)c(O)c(O)c(O)c12 [N4A, 5,6,7,8-tetrahydroxy-2-(4-hydroxyphenyl) chromen-4-one]",not affected,> 65%,competitive inhibitor against Fru-6-P; also recorded: Competitive to Fru-6-P,2.97 ± 0.16 µM,1.29 ± 0.26 µM,over 80%,less than 50%,less than 50%,less than 50%,over 40%,approximately 20%,greater than 30%,70%,14.2 ± 1.5 µM,significantly inhibited colony formation,64%,prone to apoptosis,death by necrosis was significantly increased,induced both apoptotic and necrotic cell death,–
"O=c1c(-c2ccc(O)cc2)coc2c(O)c(O)ccc12 [YN1, 7,8-dihydroxy-3-(4-hydroxyphenyl) chromen-4-one]",–,–,Competitive to Fru-6-P,0.67 ± 0.08 µM,0.24 ± 0.03 µM,over 80%,less than 40%,less than 40%,less than 40%,over 40%,approximately 20%,greater than 30%,over 90%,8.2 ± 0.8 µM,significantly inhibited colony formation,79%,prone to apoptosis,death by necrosis was significantly increased,induced both apoptotic and necrotic cell death,5 fold
"CCOC(=O)c1cc2ccc(O)cc2oc1=O [YZ9, ethyl 7-hydroxy-2-oxochromene-3-carboxylate]",–,–,–,–,–,–,–,–,–,–,–,–,–,2.7 ± 0.2 µM,–,–,–,–,–,–
